Assay results taken from patent US20260176320A1, “MODULATORS OF G-PROTEIN COUPLED RECEPTORS” (priority 2018, published 2026).
Where two headings read alike, the source gives them in different places. Numbered stars: 1 amine (or outer) side, 2 acyl side, 3 side chain; on linkers, the order of the positions; unused ones are H or OH. Square brackets hold non-standard residues; d marks the D form. Side chains are listed from the residue outwards. Peptide text beside a SMILES is read from it. * marks the point of attachment. γGlu = O=C(O)[C@H](CCC(=O)[*:2])N[*:1]; X2 = O=C(CSCC(=O)*)NCCN1C(=O)CSC1=O; Palmitoyl = CCCCCCCCCCCCCCCC(=O)*; Aib = CC(C)(N)C(=O)O

What was measured:
Assay type in all cases: cell-based
[1] = target: T1, GIP-R (Homo sapiens, UniProt P48546); test: HitHunter cAMP assay (GIP-R); details: cAMP; for Emax: read-out: (Emax) GIP-R
T1 sequence (P48546 22-466): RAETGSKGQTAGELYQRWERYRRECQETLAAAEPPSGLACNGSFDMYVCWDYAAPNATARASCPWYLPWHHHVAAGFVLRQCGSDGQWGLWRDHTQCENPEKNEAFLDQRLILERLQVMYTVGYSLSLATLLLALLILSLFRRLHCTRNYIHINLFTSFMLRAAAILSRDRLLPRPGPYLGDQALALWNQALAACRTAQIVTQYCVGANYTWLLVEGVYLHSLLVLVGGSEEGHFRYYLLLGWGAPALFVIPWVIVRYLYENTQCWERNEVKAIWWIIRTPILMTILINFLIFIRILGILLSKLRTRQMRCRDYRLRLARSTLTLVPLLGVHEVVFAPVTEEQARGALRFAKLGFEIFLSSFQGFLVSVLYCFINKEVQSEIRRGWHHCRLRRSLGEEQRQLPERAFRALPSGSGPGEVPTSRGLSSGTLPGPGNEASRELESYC
Summary of the method: (§1)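 Duplicate 22-point, 2-fold agonist titrations applied to receptor-expressing suspension cells in IBMX-containing HBSS; 30 min RT stimulation. Read: luminescent cAMP immunocompetition after O/N dark incubation.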

[2] = target: T2, GLP-1R (Homo sapiens, UniProt P43220); test: HitHunter cAMP assay (GLP-1R); details: cAMP; for Emax: read-out: (Emax) GLP-1R
Summary of the method: as §1

[3] = target: T2, GLP-1R; test: PathHunter β-arrestin assay
Summary of the method: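 Following a 90 min agonist exposure at 37 °C in 0.2% BSA medium, β-arrestin coupling was detected by chemiluminescence after 3 h at room temperature.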

[4] = Table 3, read-out: EC50 GIP-R/nM
[5] = Table 3A, read-out: EC50 GIP-R/nM
[6] = Table 3, read-out: EC50 GLP-1R/nM
[7] = Table 3A, read-out: EC50 GLP-1R/nM
[8] = PathHunter β-arrestin assay, read-out: β-arrestin activity EC50

T2 sequence (P43220 24-463): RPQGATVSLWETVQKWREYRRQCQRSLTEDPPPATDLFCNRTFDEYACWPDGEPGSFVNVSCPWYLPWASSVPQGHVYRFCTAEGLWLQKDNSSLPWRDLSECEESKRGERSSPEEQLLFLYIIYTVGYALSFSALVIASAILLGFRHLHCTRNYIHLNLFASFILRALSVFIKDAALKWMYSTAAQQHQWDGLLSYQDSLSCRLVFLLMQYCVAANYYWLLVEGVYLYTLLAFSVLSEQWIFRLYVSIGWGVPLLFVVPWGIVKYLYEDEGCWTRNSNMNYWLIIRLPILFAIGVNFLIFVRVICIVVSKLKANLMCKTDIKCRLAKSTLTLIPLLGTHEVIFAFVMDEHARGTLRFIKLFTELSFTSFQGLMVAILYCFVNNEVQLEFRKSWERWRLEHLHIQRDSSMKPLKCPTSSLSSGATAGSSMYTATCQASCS

| SMILES | Emax ([1]; Table 3) | EC50 [1, 4] | Emax ([1]; Table 3A) | EC50 [1, 5] | Emax ([2]; Table 3) | EC50 [2, 6] | Emax ([2]; Table 3A) | EC50 [2, 7] | EC50 [3, 8] | EC50 ([1]; EC50 GIP-R/nM, Table 3A) | EC50 ([2]; EC50 GLP-1R/nM, Table 3A) | EC50 [3] | EC50 ([1]; read-out: EC50 GIP-R/nM, Table 3) | EC50 ([1]; read-out: EC50 GIP-R/nM, Table 3A) | EC50 ([2]; EC50 GLP-1R/nM, Table 3) |
| --- | --- | --- | --- | --- | --- | --- | --- | --- | --- | --- | --- | --- | --- | --- | --- |
| CC[C@H](C)[C@H](NC(=O)[C@H](CO)NC(=O)[C@H](Cc1ccc(O)cc1)NC(=O)[C@H](CC(=O)O)NC(=O)[C@H](CO)NC(=O)[C@@H](NC(=O)[C@H](Cc1ccccc1)NC(=O)[C@@H](NC(=O)CNC(=O)[C@H](CCC(=O)O)NC(=O)CCNC(=O)CCCN1C(=O)c2ccccc2C1=O)[C@@H](C)O)[C@@H](C)O)C(=O)N[C@@H](Cc1ccc(O)cc1)C(=O)N[C@@H](CC(C)C)C(=O)N[C@@H](CC(=O)O)C(=O)N[C@@H](CCCCN)C(=O)N[C@@H](CCC(N)=O)C(=O)N[C@@H](C)C(=O)N[C@@H](C)C(=O)NC(C)(C)C(=O)N[C@@H](CCC(=O)O)C(=O)N[C@@H](Cc1ccccc1)C(=O)N[C@H](C(=O)N[C@@H](CC(N)=O)C(=O)N[C@@H](Cc1c[nH]c2ccccc12)C(=O)N[C@@H](CC(C)C)C(=O)N[C@@H](CC(C)C)C(=O)N[C@@H](C)C(=O)NCC(=O)NCC(=O)N1CCC[C@H]1C(=O)N[C@@H](CO)C(=O)N[C@@H](CO)C(=O)NCC(=O)N[C@@H](C)C(=O)N1CCC[C@H]1C(=O)N1CCC[C@H]1C(=O)N1CCC[C@H]1C(=O)N[C@@H](CO)C(=O)N[C@@H](CCCCN)C(N)=O)C(C)C [Compound 146] | 83 to 97% | 10 to 100 nM | 83 to 97% | 1 to 10 nM | 86 to 92% | 1 to 10 nM | 86 to 92% | 1 to 10 nM | > 1000 nM |  |  |  |  |  |  |
| CCCCCCCCCCCCCCCC(=O)N[C@@H](CCC(=O)NCCCC[C@H](NC(=O)[C@H](CO)NC(=O)[C@@H]1CCCN1C(=O)[C@@H]1CCCN1C(=O)[C@@H]1CCCN1C(=O)[C@H](C)NC(=O)CNC(=O)[C@H](CO)NC(=O)[C@H](CO)NC(=O)[C@@H]1CCCN1C(=O)CNC(=O)CNC(=O)[C@H](C)NC(=O)[C@H](CC(C)C)NC(=O)[C@H](CC(C)C)NC(=O)[C@H](Cc1c[nH]c2ccccc12)NC(=O)[C@H](CC(N)=O)NC(=O)[C@@H](NC(=O)[C@H](Cc1ccccc1)NC(=O)[C@H](CCC(=O)O)NC(=O)C(C)(C)NC(=O)[C@H](C)NC(=O)[C@H](C)NC(=O)[C@H](CCC(N)=O)NC(=O)[C@H](CCCCN)NC(=O)[C@H](CC(=O)O)NC(=O)[C@H](CC(C)C)NC(=O)[C@H](Cc1ccc(O)cc1)NC(=O)[C@@H](NC(=O)[C@H](CO)NC(=O)[C@H](Cc1ccc(O)cc1)NC(=O)[C@H](CC(=O)O)NC(=O)[C@H](CO)NC(=O)[C@@H](NC(=O)[C@H](Cc1ccccc1)NC(=O)[C@@H](NC(=O)CNC(=O)[C@H](CCC(=O)O)NC(=O)CSCC(=O)NCCN1CCNC(=O)C1)[C@@H](C)O)[C@@H](C)O)[C@@H](C)CC)C(C)C)C(N)=O)C(=O)O [Compound 37] | 10 to 21% | 1 to 10 nM | 10 to 21% |  | 110% | < 1 nM | 110% | < 1 nM | > 1000 nM |  |  |  |  |  |  |
| CCCCCCCCCCCCCCCC(=O)N[C@@H](CCC(=O)NCCCC[C@H](NC(=O)[C@H](CO)NC(=O)[C@@H]1CCCN1C(=O)[C@@H]1CCCN1C(=O)[C@@H]1CCCN1C(=O)[C@H](C)NC(=O)CNC(=O)[C@H](CO)NC(=O)[C@H](CO)NC(=O)[C@@H]1CCCN1C(=O)CNC(=O)CNC(=O)[C@H](C)NC(=O)[C@H](CC(C)C)NC(=O)[C@H](CC(C)C)NC(=O)[C@H](Cc1c[nH]c2ccccc12)NC(=O)[C@H](CC(N)=O)NC(=O)[C@@H](NC(=O)[C@H](Cc1ccccc1)NC(=O)[C@H](CCC(=O)O)NC(=O)C(C)(C)NC(=O)[C@H](C)NC(=O)[C@H](C)NC(=O)[C@H](CCC(N)=O)NC(=O)[C@H](CCCCN)NC(=O)[C@H](CC(=O)O)NC(=O)[C@H](CCSC)NC(=O)[C@H](CCC(N)=O)NC(=O)[C@@H](NC(=O)[C@H](CO)NC(=O)[C@H](Cc1ccc(O)cc1)NC(=O)[C@H](CC(=O)O)NC(=O)[C@H](CO)NC(=O)[C@@H](NC(=O)[C@H](Cc1ccccc1)NC(=O)[C@@H](NC(=O)CNC(=O)[C@H](CCC(=O)O)NC(=O)CSCC(=O)NCCN1C(=O)CSC1=O)[C@@H](C)O)[C@@H](C)O)[C@@H](C)CC)C(C)C)C(N)=O)C(=O)O [Compound 72] (X2-EGTFTSDYSIQMDKQAA[Aib]EFVNWLLAGGPSSGAPPPSK([γGlu-Palmitoyl])-NH2) | 87% | 0.1 to 1 nM | 87% | 0.1 to 1 nM | 105% | 0.1 to 1 nM | 105% | 0.1 to 1 nM | > 1000 nM |  |  |  |  |  |  |
| CCCCCCCCCCCCCCCC(=O)N[C@@H](CCC(=O)NCCCC[C@H](NC(=O)[C@H](CO)NC(=O)[C@@H]1CCCN1C(=O)[C@@H]1CCCN1C(=O)[C@@H]1CCCN1C(=O)[C@H](C)NC(=O)CNC(=O)[C@H](CO)NC(=O)[C@H](CO)NC(=O)[C@@H]1CCCN1C(=O)CNC(=O)CNC(=O)[C@H](C)NC(=O)[C@H](CC(C)C)NC(=O)[C@H](CC(C)C)NC(=O)[C@H](Cc1c[nH]c2ccccc12)NC(=O)[C@H](CC(N)=O)NC(=O)[C@@H](NC(=O)[C@H](Cc1ccccc1)NC(=O)[C@H](CCC(=O)O)NC(=O)C(C)(C)NC(=O)[C@H](C)NC(=O)[C@H](C)NC(=O)[C@H](CCC(N)=O)NC(=O)[C@H](CCCCN)NC(=O)[C@H](CC(=O)O)NC(=O)[C@H](CC(C)C)NC(=O)[C@H](Cc1ccc(O)cc1)NC(=O)[C@@H](NC(=O)[C@H](CO)NC(=O)[C@H](Cc1ccc(O)cc1)NC(=O)[C@H](CC(=O)O)NC(=O)[C@H](CO)NC(=O)[C@@H](NC(=O)[C@H](Cc1ccccc1)NC(=O)[C@@H](NC(=O)CNC(=O)[C@H](CCC(=O)O)NC(=O)CSCC(=O)NCCn1ccc(C)cc1=O)[C@@H](C)O)[C@@H](C)O)[C@@H](C)CC)C(C)C)C(N)=O)C(=O)O [Compound 285] |  |  | 97% |  |  |  | 99% |  |  | 0.1 to 1 nM | < 0.1 nM | > 1000 nM |  |  |  |
| CC[C@H](C)[C@H](NC(=O)[C@H](CO)NC(=O)[C@H](Cc1ccc(O)cc1)NC(=O)[C@H](CC(=O)O)NC(=O)[C@H](CO)NC(=O)[C@@H](NC(=O)[C@H](Cc1ccccc1)NC(=O)[C@@H](NC(=O)CNC(=O)[C@H](CCC(=O)O)NC(=O)C(C)(C)C(=O)NC)[C@@H](C)O)[C@@H](C)O)C(=O)N[C@@H](Cc1ccc(O)cc1)C(=O)N[C@@H](CC(C)C)C(=O)N[C@@H](CC(=O)O)C(=O)N[C@@H](CCCCN)C(=O)N[C@@H](CCC(N)=O)C(=O)N[C@@H](C)C(=O)N[C@@H](C)C(=O)NC(C)(C)C(=O)N[C@@H](CCC(=O)O)C(=O)N[C@@H](Cc1ccccc1)C(=O)N[C@H](C(=O)N[C@@H](CC(N)=O)C(=O)N[C@@H](Cc1c[nH]c2ccccc12)C(=O)N[C@@H](CC(C)C)C(=O)N[C@@H](CC(C)C)C(=O)N[C@@H](C)C(=O)NCC(=O)NCC(=O)N1CCC[C@H]1C(=O)N[C@@H](CO)C(=O)N[C@@H](CO)C(=O)NCC(=O)N[C@@H](C)C(=O)N1CCC[C@H]1C(=O)N1CCC[C@H]1C(=O)N1CCC[C@H]1C(=O)N[C@@H](CO)C(=O)N[C@@H](CCCCN)C(N)=O)C(C)C [Compound 142] | 14.2 to 17% | 10 to 100 nM | 14.2 to 17% | 100 to 1000 nM | 101 to 105% | < 0.1 nM | 101 to 105% | < 0.1 nM | 10 to 1000 nM |  |  |  |  |  |  |
| CC[C@H](C)[C@H](NC(=O)[C@H](CO)NC(=O)[C@H](Cc1ccc(O)cc1)NC(=O)[C@H](CC(=O)O)NC(=O)[C@H](CO)NC(=O)[C@@H](NC(=O)[C@H](Cc1ccccc1)NC(=O)[C@@H](NC(=O)CNC(=O)[C@H](CCC(=O)O)NC(=O)CSCC(=O)NCCN1C(=O)c2cccc(Cl)c2C1=O)[C@@H](C)O)[C@@H](C)O)C(=O)N[C@@H](Cc1ccc(O)cc1)C(=O)N[C@@H](CC(C)C)C(=O)N[C@@H](CC(=O)O)C(=O)N[C@@H](CCCCN)C(=O)N[C@@H](CCC(N)=O)C(=O)N[C@@H](C)C(=O)N[C@@H](C)C(=O)NC(C)(C)C(=O)N[C@@H](CCC(=O)O)C(=O)N[C@@H](Cc1ccccc1)C(=O)N[C@H](C(=O)N[C@@H](CC(N)=O)C(=O)N[C@@H](Cc1c[nH]c2ccccc12)C(=O)N[C@@H](CC(C)C)C(=O)N[C@@H](CC(C)C)C(=O)N[C@@H](C)C(=O)NCC(=O)NCC(=O)N1CCC[C@H]1C(=O)N[C@@H](CO)C(=O)N[C@@H](CO)C(=O)NCC(=O)N[C@@H](C)C(=O)N1CCC[C@H]1C(=O)N1CCC[C@H]1C(=O)N1CCC[C@H]1C(=O)N[C@@H](CO)C(=O)N[C@@H](CCCCN)C(N)=O)C(C)C [Compound 162] | 103 to 107% |  | 103 to 107% |  | 42 to 46% |  | 42 to 46% |  |  |  | 10 to 100 nM | > 1000 nM | 0.1 to 10 nM | 0.1 to 10 nM | 10 to 100 nM |
